In article PMC11188305, “Reproductive and fetal toxicity studies of histamine H3 receptor antagonist DL76 used in mice to prevent maximal electroshock-induced seizure” (Frontiers in Pharmacology, 2024):

Tests used:
[1] = tested on: MES-induced seizures in mice; assay: Maximal electroshock (MES)-induced seizure, duration of tonic hind limb extension (THLE); type: in vivo, C57BL/6J mice
Excerpt: As previously described and with a slight modification in the intensity applied, seizures were elicited in mice with a 50-Hz alternating current of 120 mA intensity ([Kaminski et al., 2015]; [Song et al., 2020]; [Xiao et al., 2021]; [Hua et al., 2023]). The current was applied through ear electrodes for 0.2 s. Protection against the spread of MES-induced convulsion was defined as the abolition of the tonic hind limb extension (THLE) component of the seizure ([Kaminski et al., 2015]; [Song et al., 2020]; [Xiao et al., 2021]; [Hua et al., 2023]). The animals were divided into the following experimental groups, with eight mice in each: the control group injected with saline, the positive control group injected with 300 mg/kg of VPA (the minimal dose of VPA that protected animals against the spread of MES-induced convulsions without mortality in mice) ([Sadek et al., 2015]; [Bastaki et al., 2018]), and four groups that were administered the test compound DL76 at doses of 7.5 mg/kg, 15 mg/kg, 30 mg/kg, or 60 mg/kg. All drugs were administered 30–45 min before the MES challenge. In a further group of eight mice, the most promising and protective dose of DL76 (60 mg/kg, i.p.) was co-injected with RAM (10 mg/kg, i.p.), 30 min apart and 15 min prior to the MES test. Protection against the spread of MES-induced convulsion was defined as the abolition of the THLE component of the convulsion ([Sadek et al., 2015]; [Alachkar et al., 2018]; [Bastaki et al., 2018]).
Statistical analyses employed SPSS 26.0 (IBM Middle East, Dubai, UAE). Data were presented as means ± SEM. […] Fetal abnormality data were presented as counts and percentages. Fisher’s exact test compared the percentages of abnormalities between the control group (saline) and the different dose groups. All tests were two-tailed, and significance was set at p < 0.05.

C57BL/6 mice = tested on: C57BL/6 mice; parameters: method as in Chateauvieux et al., 2010; conditions: ref Chateauvieux et al., 2010; cited from earlier work
[2] = tested on: MES-induced seizures in mice; parameters: method as in Sadek et al., 2015; Bastaki et al., 2018; conditions: ref Sadek et al., 2015, Bastaki et al., 2018; cited from earlier work
[3] = tested on: experimental seizure models; parameters: method as in earlier work; conditions: acute and chronic experimental seizure models; ref Brown et al., 2001; Vohora et al., 2010; Witkin and Nelson, 2004; Sadek et al., 2015; Bastaki et al., 2018; cited from earlier work
[4] = tested on: photosensitivity seizure model; parameters: method as in Lamb, 2020; conditions: adult patients; ref Lamb, 2020; cited from earlier work

Q: What does the source list for `C[C@@H](N)Cc1c[nH]cn1` [RAM, (R)-α-methylhistamine, reference compound]?
A: effect of RAM alone on MES-induced convulsions ([1]; female adult mice, RAM 10 mg/kg i.p., p = 0.91 saline-saline vs. saline-RAM): results similar to those witnessed in male adult mice; effect on MES-induced convulsions when injected alone ([1]; male adult mice, RAM 10 mg/kg i.p., p = 0.602): did not affect MES-induced convulsions; activity of RAM injected alone in MES-induced convulsion ([1]; mice, both sexes, RAM 10 mg/kg): neither a protective nor an epileptogenic activity

Q: Which malformations (C57BL/6 mice) does the source give for `CCCC(CCC)C(=O)O` [VPA, valproic acid, reference compound] here?
A: induce malformations

Q: What about the “difference of protective effects between male and female mice” value ([1]; VPA 300 mg/kg i.p., p = 0.164) of the same compound?
A: no significant differences

Q: And the “protection against MES-induced convulsions” value ([1]; female adult mice, VPA 300 mg/kg i.p.)?
A: significantly protected

Q: And the “minimal dose that protected animals against the spread of MES-induced convulsions without mortality” value [2]?
A: 300 mg/kg

Q: Which anticonvulsant efficacy [3] does the source give for `S=C(NC1CCCCC1)N1CCC(c2cnc[nH]2)CC1` [thioperamide] here?
A: anticonvulsant efficacy

Q: Which anticonvulsant efficacy [3] does the source give for `CCC(C)(C)c1ccc(OCCCN2CCCCC2)cc1` [DL77] here?
A: anticonvulsant efficacy

Q: Which “effects against the photosensitivity seizure model” value [4] does the source give for `Clc1ccc(CCCOCCCN2CCCCC2)cc1` [PIT] here?
A: protective effects
